Source: patent publication US4638009A, “Derivatives of 3-pyrrolidinopropiophenone and a process for preparation thereof” (Hokuriku Pharmaceutical Co., Ltd., priority 1984, dated 1987)
Where a name gives a salt, the structure may show the parent alone.

What was measured:
[1] = system: oxotremorine-induced tremor; test: Effect on oxotremorine-induced tremor; assay type: in vivo, male ddY mice; settings: 100 mg/kg p.o., oxotremorine 1 mg/kg i.p. 15 min later, 0=absent to 5=lack of righting reflex; for tremor score, 5 min: passage of time 5 min; for tremor score, 10 min: passage of time 10 min; for tremor score, 15 min: passage of time 15 min; for tremor score, 20 min: passage of time 20 min; for tremor score, 30 min: passage of time 30 min
Protocol: 3. Effect on oxotremorine-induced tumor
Male ddY mice 5 weeks old were used with 5 animals in a group. The compounds were administrated per os at a dose of 100 mg/kg and after 15 minutes oxotremorine was intraperitoneally administered at dose of 1 mg/kg. The strength of the induced tremor was observed by the method of Suzuki et al (Folia Pharmacologica Japonica, 83, 127(1983) and scored up with passage of time as follows:
4=severe, 5=lack of righting reflex.

[2] = system: nicotine-induced convulsion; test: Activity on nicotine-induced convulsion; assay type: in vivo, male ddY mice; settings: compound 25 mg/kg p.o., nicotine tartrate 3 mg/kg i.v. 15 min later, n=5; for mortality: dead animals because of the convulsions
Protocol: 2. Activity on nicotine-induced convulsion
Male ddY mice 5 weeks old were used with 5 animals in a group. The compounds were administered per os at a dose of 25 mg/kg. After 15 minutes of drug administration, Nicotine tartarate was administered intravenously at an amount of 3 mg/kg and the tonic convulsions and dead animals because of the convulsions have been measured. The effect of the compounds has been indicated by percentage of appearance of tonic convulsion and the mortality.

[3] = in vivo; settings: mouse
Protocol: Male ddY mice 5 weeks old were used with 5 animals at a group. The compounds were administrated orally with each dosage. LD50 was determined by the Probit method from dead animals dying within 7 days.

[4] = cited from earlier work; for side effect (prior art): in vivo
[5] = versus Tolperisone; cited from earlier work

In the case of `CCCCc1ccc(C(=O)C(C)CN2CCCC2)cc1` (stereo not drawn) [Compound 1, 4'-n-Butyl-2-methyl-3-pyrrolidinopropiophenone], the “tremor score, 5 min” value [1] is reported as 0, the “tremor score, 10 min” value [1] is reported as 0.4 and the “tremor score, 15 min” value [1] is reported as 0.4. For the same compound, the “tremor score, 20 min” value [1] was 0.9, the “tremor score, 30 min” value [1] was 0.8 and the “appearance of tonic convulsion” value [2] was 20%. It also gave a mortality [2] of 40% and an LD50 at 168 h ([3]; oral, deaths within 7 days, Probit method, n=5 per group) of 520 mg/kg.
For `Cc1ccc(C(=O)C(C)CN2CCCCC2)cc1` (stereo not drawn) [Tolperisone], the “side effect (prior art)” value [4] is given as “hepatic functional disorder”.
With `CCc1ccc(C(=O)C(C)CN2CCCC2)cc1` (stereo not drawn) [Compound 2, 4'-Ethyl-2-methyl-3-pyrrolidinopropiophenone] the “tremor score, 5 min” value [1] was 0, the “tremor score, 10 min” value [1] was 0.4 and the “tremor score, 15 min” value [1] was 0.3. For the same compound, the “tremor score, 20 min” value [1] was 0.4, the “tremor score, 30 min” value [1] was 0.4 and the “appearance of tonic convulsion” value [2] was 40%. The mortality [2] was 60%.
In the case of `CCc1ccc(C(=O)C(C)CN2CCCCC2)cc1` (stereo not drawn) [Eperisone], the “muscle relaxation activity of Eperisone (prior art)” value [5] is listed as “improvement in muscle relaxation activity”, the “toxicity (prior art)” value ([4]; Eperisone versus Tolperisone) is listed as “just the same strong toxicity as Tolperisone” and the “side effect (prior art)” value [4] is listed as “hepatic and kidney function disorder”.
With `CCc1ccc(C(=O)C(C)CN2CCCCC2)cc1` (stereo not drawn) [Reference Drug, Eperisone hydrochloride, reference compound] the “tremor score, 5 min” value [1] was 0, the “tremor score, 10 min” value [1] was 0.4 and the “tremor score, 15 min” value [1] was 0.3. The “tremor score, 20 min” value [1] was 0.2, the “tremor score, 30 min” value [1] was 0 and the “appearance of tonic convulsion” value [2] was 60%. The mortality [2] was 100% and the LD50 at 168 h ([3]; po) was 332 mg/kg.
